From patent publication US20260216238A1, “TETRATHIOMOLYBDIC ACID FOR USE IN TREATING COPPER METABOLISM-ASSOCIATED DISEASES OR DISORDERS (WILSON DISEASE)” (Alexion Pharmaceuticals, Inc., priority 2023, published 2026)
Like-named read-outs stand apart in the source and are kept apart here.

What was measured:
[1] = system: patients with Wilson disease (WD)
Protocol: This assessment is also applicable to SoC treatments. In addition, plasma Cp, CpC, plasma total copper, and LBC were measured with AUEC calculated for plasma total copper and LBC.
The LBC method measures exchangeable plasma copper that is not bound to either Cp or TPC.
Pharmacodynamics: Blood samples were collected to directly measure plasma total copper, PUF copper, dNCC, and LBC. Calculations may be performed for cNCC and cNCCcorrected, the latter of which is non-ceruloplasmin-bound and non-molybdenum-albumin-bound copper.

[2] = system: patients with Wilson disease (WD); assay: UWDRS Part III minimal clinically important difference (MCID) responders and net promoter score; assay type: in vivo, human
Excerpt: To calculate net promoter scores, minimal clinically important differences (MCID) were first defined.
Therefore, distribution-based methods were used to compute MCID threshold, half standard deviation (SD), and standard error of measurement (SEM) for the full Study 301 population and the Subpart E population. […] The difference between those two proportions represented the “net promoter score.”

[3] = system: patients with Wilson disease (WD); conditions: in vivo
[4] = human, in vivo
[5] = system: patients with Wilson disease (WD); conditions: FIG. 23; TTM versus SoC chelator therapy
Excerpt: Urine samples were collected for analysis of urine copper and molybdenum.

## bis-choline tetrathiomolybdate [TTM]
[1]; Adolescent
  AUEC(0-48 week) LBC, Mean: 1.5 mmol/L
  AUEC(0-48 week) LBC, Median: 1.2 mmol/L
  AUEC(0-48 week) PTC (plasma total copper), Mean: 7.5 mmol/L
  AUEC(0-48 week) PTC (plasma total copper), Median: 5.4 mmol/L
  AUEC(0-48 week) dNCC, Mean: 2.7 mmol/L
  AUEC(0-48 week) dNCC, Median: 2.3 mmol/L
[1]; Adult
  AUEC(0-48 week) LBC, Mean: 1.8 mmol/L
  AUEC(0-48 week) LBC, Median: 1.2 mmol/L
  AUEC(0-48 week) PTC (plasma total copper), Mean: 7.8 mmol/L
  AUEC(0-48 week) PTC (plasma total copper), Median: 7.3 mmol/L
  AUEC(0-48 week) dNCC, Mean: 3.2 mmol/L
  AUEC(0-48 week) dNCC, Median: 2.2 mmol/L
[2]; Study 301, by 48 weeks
  patients improved by ≥5 points in UWDRS Part III: 44.8%
[2]; improving minus worsening
  UWDRS Part III SD MCID Achievers, Net Promoter Score: 16%
  UWDRS Part III SE MCID Achievers, Net Promoter Score: 20%
[2]; in vivo
  UWDRS Part III SD MCID Achievers, Improving: 22%
  UWDRS Part III SD MCID Achievers, Worsening: 6%
  UWDRS Part III SE MCID Achievers, Improving: 28%
  UWDRS Part III SE MCID Achievers, Worsening: 8%
[2]; incomplete and/or intolerant subgroup, 48 weeks
  patients improved at 4-point change threshold in UWDRS Part III: 43.1%
[3]
  AEs in SOC Investigations: 29.5%
  AEs in SOC Metabolism and nutrition disorders: 11.5%
  AEs in SOC Skin and subcutaneous tissue disorders: 13.1%
  Affective disorder, E (events): 0
  Affective disorder, participants with AE: 0 N (%)
  Alanine aminotransferase increased AE, % participants: 19.7%
  Alanine aminotransferase increased AE, E events: 14
  Alanine aminotransferase increased AE, N participants: 12
  Anxiety, E (events): 1
  Anxiety, participants with AE: 1 (1.6) N (%)
  Aspartate aminotransferase increased AE, % participants: 6.6%
  Aspartate aminotransferase increased AE, E events: 4
  Aspartate aminotransferase increased AE, N participants: 4
  Attention deficit hyperactivity disorder, E (events): 0
  Attention deficit hyperactivity disorder, participants with AE: 0 N (%)
  Blood and lymphatic system disorders, E (events): 18
  Blood and lymphatic system disorders, participants with AE: 7 (11.5) N (%)
  Cardiac disorders, E (events): 5
  Cardiac disorders, participants with AE: 3 (4.9) N (%)
  Congenital, familial, and genetic disorders, E (events): 0
  Congenital, familial, and genetic disorders, participants with AE: 0 N (%)
  Dyslipidemia AE, % participants: 1.6%
  Dyslipidemia AE, E events: 1
  Dyslipidemia AE, N participants: 1
  Ear and labyrinth disorders, E (events): 1
  Ear and labyrinth disorders, participants with AE: 1 (1.6) N (%)
  Eczema AE, % participants: 1.6%
  Eczema AE, E events: 1
  Eczema AE, N participants: 1
  Eye disorders, E (events): 0
  Eye disorders, participants with AE: 0 N (%)
  Fatigue AE, % participants: 8.2%
  Fatigue AE, E events: 5
  Fatigue AE, N participants: 5
  Gamma-glutamyltransferase increased AE, % participants: 4.9%
  Gamma-glutamyltransferase increased AE, E events: 3
  Gamma-glutamyltransferase increased AE, N participants: 3
  Gastrointestinal disorders, E (events): 30
  Gastrointestinal disorders, participants with AE: 18 (29.5) N (%)
  Hand dermatitis AE, % participants: 1.6%
  Hand dermatitis AE, E events: 1
  Hand dermatitis AE, N participants: 1
  Hepatic enzyme increased AE, N participants: 3
  Hepatobiliary disorders, E (events): 3
  Hepatobiliary disorders, participants with AE: 2 (3.3) N (%)
  Hyperlipidaemia AE, % participants: 1.6%
  Hyperlipidaemia AE, E events: 1
  Hyperlipidaemia AE, N participants: 1
  Hypertriglyceridaemia AE, % participants: 1.6%
  Hypertriglyceridaemia AE, E events: 3
  Hypertriglyceridaemia AE, N participants: 1
  Infections and infestations, E (events): 23
  Infections and infestations, participants with AE: 17 (27.9) N (%)
  Injury, poisoning and procedural complications, E (events): 13
  Injury, poisoning and procedural complications, participants with AE: 7 (11.5) N (%)
  Investigations (SOC) AE, % participants: 29.5%
  Investigations (SOC) AE, E events: 29
  Investigations (SOC) AE, N participants: 18
  Metabolism and nutrition disorders (SOC) AE, % participants: 11.5%
  Metabolism and nutrition disorders (SOC) AE, E events: 10
  Metabolism and nutrition disorders (SOC) AE, N participants: 7
  Neoplasms benign, malignant, and unspecified (incl cysts and polyps), E (events): 1
  Neoplasms benign, malignant, and unspecified (incl cysts and polyps), participants with AE: 1 (1.6) N (%)
  Nervous system disorders, E (events): 12
  Nervous system disorders, participants with AE: 11 (18.0) N (%)
  Neutrophil count decreased AE, % participants: 1.6%
  Neutrophil count decreased AE, E events: 1
  Neutrophil count decreased AE, N participants: 1
  Post-traumatic stress disorder, E (events): 1
  Post-traumatic stress disorder, participants with AE: 1 (1.6) N (%)
  Product issues, E (events): 0
  Product issues, participants with AE: 0 N (%)
  Pruritus AE, % participants: 3.3%
  Pruritus AE, E events: 2
  Pruritus AE, N participants: 2
  Psychiatric disorders, E (events): 3
  Psychiatric disorders, participants with AE: 3 (4.9) N (%)
  Pyrexia AE, % participants: 1.6%
  Pyrexia AE, E events: 1
  Pyrexia AE, N participants: 1
  Rash AE, % participants: 1.6%
  Rash AE, E events: 5
  Rash AE, N participants: 1
  Rash pruritic AE, % participants: 1.6%
  Rash pruritic AE, E events: 1
  Rash pruritic AE, N participants: 1
  Renal and urinary disorders, E (events): 2
  Renal and urinary disorders, participants with AE: 1 (1.6) N (%)
  Reproductive system and breast disorders, E (events): 0
  Reproductive system and breast disorders, participants with AE: 0 N (%)
  Respiratory, thoracic, and mediastinal disorders, E (events): 4
  Respiratory, thoracic, and mediastinal disorders, participants with AE: 3 (4.9) N (%)
  Restlessness, E (events): 0
  Restlessness, participants with AE: 0 N (%)
  Skin and subcutaneous tissue disorders (SOC) AE, % participants: 13.1%
  Skin and subcutaneous tissue disorders (SOC) AE, E events: 15
  Skin and subcutaneous tissue disorders (SOC) AE, N participants: 8
  Sleep disorder, E (events): 1
  Sleep disorder, participants with AE: 1 (1.6) N (%)
  Vascular disorders, E (events): 5
  Vascular disorders, participants with AE: 3 (4.9) N (%)
[4]
  effect of age on plasma total molybdenum clearance: not a significant covariate
[5]
  24-hour urinary copper: lower with TTM than SoC chelator therapy
